Results from ChEMBL document CHEMBL1129099, “Non-peptide fibrinogen receptor antagonists based upon a 4-substituted piperidine scaffold” (Bioorg Med Chem Lett, 1996).

Key:
[1] = target: Integrin alpha-IIb/beta-3 (Homo sapiens, UniProt P05106+P08514); test: Inhibition of [125I]- Fg binding to fibrinogen receptor of activated human platelets
Homo sapiens = species on record: Homo sapiens; test: Evaluated for human platelet aggregation.; type: functional

Integrin alpha-IIb/beta-3, sequence (P05106 27-788 limits assumed): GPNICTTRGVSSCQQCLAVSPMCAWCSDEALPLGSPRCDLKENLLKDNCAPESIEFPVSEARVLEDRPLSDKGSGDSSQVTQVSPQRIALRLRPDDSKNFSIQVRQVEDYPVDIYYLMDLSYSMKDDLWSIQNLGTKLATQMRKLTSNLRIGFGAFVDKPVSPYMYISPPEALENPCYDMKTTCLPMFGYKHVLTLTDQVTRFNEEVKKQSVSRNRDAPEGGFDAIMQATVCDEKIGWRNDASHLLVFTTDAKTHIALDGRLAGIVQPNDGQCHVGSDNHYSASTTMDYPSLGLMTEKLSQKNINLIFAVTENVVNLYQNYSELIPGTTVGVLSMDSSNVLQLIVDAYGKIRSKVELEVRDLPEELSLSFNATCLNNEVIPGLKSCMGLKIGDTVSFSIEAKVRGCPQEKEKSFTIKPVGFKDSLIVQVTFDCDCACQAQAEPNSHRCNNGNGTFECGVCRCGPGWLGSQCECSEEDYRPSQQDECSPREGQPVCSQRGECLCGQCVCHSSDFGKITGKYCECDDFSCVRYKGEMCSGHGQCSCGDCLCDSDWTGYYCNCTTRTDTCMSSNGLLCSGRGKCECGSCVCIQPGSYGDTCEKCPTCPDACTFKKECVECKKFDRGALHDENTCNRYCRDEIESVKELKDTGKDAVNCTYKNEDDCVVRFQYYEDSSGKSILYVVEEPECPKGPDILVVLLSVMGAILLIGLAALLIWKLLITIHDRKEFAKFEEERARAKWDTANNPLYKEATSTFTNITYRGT
Integrin alpha-IIb/beta-3, sequence (P08514 32-887 limits assumed): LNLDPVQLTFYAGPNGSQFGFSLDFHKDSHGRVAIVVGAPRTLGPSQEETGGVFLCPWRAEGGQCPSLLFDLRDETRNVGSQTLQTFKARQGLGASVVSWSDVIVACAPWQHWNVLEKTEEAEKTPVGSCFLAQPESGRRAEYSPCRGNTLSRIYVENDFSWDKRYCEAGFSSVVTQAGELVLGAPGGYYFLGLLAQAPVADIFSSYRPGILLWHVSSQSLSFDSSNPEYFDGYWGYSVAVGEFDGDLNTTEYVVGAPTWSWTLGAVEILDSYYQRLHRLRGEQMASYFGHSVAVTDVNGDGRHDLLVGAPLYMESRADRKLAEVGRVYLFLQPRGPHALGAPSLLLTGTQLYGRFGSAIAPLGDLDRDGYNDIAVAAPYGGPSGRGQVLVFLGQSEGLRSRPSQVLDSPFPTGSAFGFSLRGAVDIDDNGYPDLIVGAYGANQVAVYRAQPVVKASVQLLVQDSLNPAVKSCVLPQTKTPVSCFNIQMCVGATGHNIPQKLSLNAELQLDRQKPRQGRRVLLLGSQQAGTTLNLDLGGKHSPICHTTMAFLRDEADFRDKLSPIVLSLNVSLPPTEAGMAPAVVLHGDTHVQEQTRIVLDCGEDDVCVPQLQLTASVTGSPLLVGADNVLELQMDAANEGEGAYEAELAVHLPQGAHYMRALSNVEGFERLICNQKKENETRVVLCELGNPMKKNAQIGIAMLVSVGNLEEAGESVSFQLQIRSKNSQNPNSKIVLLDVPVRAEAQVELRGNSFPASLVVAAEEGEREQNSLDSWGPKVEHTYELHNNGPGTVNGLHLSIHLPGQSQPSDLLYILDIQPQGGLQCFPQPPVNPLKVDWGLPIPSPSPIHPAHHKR
Integrin alpha-IIb/beta-3, sequence (P08514 891-1039 limits assumed): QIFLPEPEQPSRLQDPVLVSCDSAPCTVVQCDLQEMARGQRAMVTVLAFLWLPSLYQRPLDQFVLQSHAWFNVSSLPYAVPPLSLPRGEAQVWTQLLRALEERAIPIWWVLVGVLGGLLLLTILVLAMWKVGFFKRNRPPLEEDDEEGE

SMILES | IC50 [1] | IC50 (Homo sapiens)
O=C(O)CCC(=O)N1CCC(CCCC2CCNCC2)CC1 | > 25000 nM | –
O=C(O)CCCCC(=O)N1CCC(CCCC2CCNCC2)CC1 | 6700 nM | –
O=C(O)[C@H](CCC(=O)N1CCC(CCCC2CCNCC2)CC1)NS(=O)(=O)c1ccc2ccccc2c1 | 40 nM | 10 nM
O=C(O)[C@H](CCC(=O)N1CCC(CCCC2CCNCC2)CC1)NS(=O)(=O)Cc1ccccc1 | 20 nM | 20 nM
O=C(O)[C@H](CCC(=O)N1CCC(CCCC2CCNCC2)CC1)NS(=O)(=O)c1cccc2ccccc12 | 40 nM | 10 nM
CCCCS(=O)(=O)N[C@H](CCC(=O)O)C(=O)N1CCC(CCCC2CCNCC2)CC1 | 130 nM | –
CCCCS(=O)(=O)NC(CC(=O)O)CC(=O)N1CCC(CCCC2CCNCC2)CC1 (centres undefined) | 950 nM | –
CCCCCN[C@@H](CCC(=O)N1CCC(CCCC2CCNCC2)CC1)C(=O)O | 8400 nM | –
O=C(O)CCCC(=O)N1CCC(CCCC2CCNCC2)CC1 | 3000 nM | –
CCCCC(=O)N[C@@H](CCC(=O)N1CCC(CCCC2CCNCC2)CC1)C(=O)O | 250 nM | –
CCCCS(=O)(=O)N[C@@H](CCC(=O)N1CCC(CCCC2CCNCC2)CC1)C(=O)O | 110 nM | 70 nM
CCCCS(=O)(=O)N[C@H](CCC(=O)N1CCC(CCCC2CCNCC2)CC1)C(=O)O | > 25000 nM | –
CCCCS(=O)(=O)N[C@@H](CCC(=O)O)C(=O)N1CCC(CCCC2CCNCC2)CC1 | > 25000 nM | –
CCCCCCCCS(=O)(=O)N[C@@H](CCC(=O)N1CCC(CCCC2CCNCC2)CC1)C(=O)O | 70 nM | 130 nM
CCCc1ccc(S(=O)(=O)N[C@@H](CCC(=O)N2CCC(CCCC3CCNCC3)CC2)C(=O)O)cc1 | 10 nM | 20 nM
O=C(O)[C@H](CCC(=O)N1CCC(CCCC2CCNCC2)CC1)NS(=O)(=O)c1ccccc1 | 30 nM | –
O=C(O)[C@H](CCC(=O)N1CCC(CCCC2CCNCC2)CC1)NS(=O)(=O)c1ccc(-c2ccccc2)cc1 | 30 nM | 30 nM
